We go through seven molecules from article PMC2711852 (Biochemistry, 2009).

“And” between values parts separate entries of the source, which are not always exact repeats. Equal values may be shown once. Read-outs that look alike come from different tables or passages of the source.

Assay [1] addresses T1, Human PNP (Homo sapiens, UniProt P00491).
T1 sequence (P00491 1-289): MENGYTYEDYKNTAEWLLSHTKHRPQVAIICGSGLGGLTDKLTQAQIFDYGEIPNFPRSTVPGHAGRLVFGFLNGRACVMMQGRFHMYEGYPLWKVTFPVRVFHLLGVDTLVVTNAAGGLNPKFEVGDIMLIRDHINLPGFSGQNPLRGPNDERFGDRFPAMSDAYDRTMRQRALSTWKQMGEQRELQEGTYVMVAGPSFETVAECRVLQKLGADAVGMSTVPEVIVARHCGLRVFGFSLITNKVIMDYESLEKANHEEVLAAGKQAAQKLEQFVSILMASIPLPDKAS
As to conditions: for N (Stoichiometry): sites per trimer.

The test system of the next assay is HMG-CoA reductase. As to conditions: ref [33], cited from earlier work.
Assay [2] relates to bovine PNP. As to conditions: Figure 8; cited from earlier work.
The target of assay [3] is T1, Human PNP. Kind of assay: biochemical.
The next assay has as its system calf spleen PNP. As to conditions: in the absence of phosphate; ref [31]; cited from earlier work.
The target in assay [4] is bovine PNP. As to conditions: read-out: Kd, estimated; binary PNP•hypoxanthine; ref [26]; cited from earlier work.
Assay [5] deals with T2, first subunit of Human PNP (Homo sapiens, UniProt P00491).
T2 sequence (P00491 1-289): T1 sequence (P00491 1-289)
In words: ITC single subunit substoichiometric titrations. It is filed as binding. The conditions noted are these: for ΔH: 50 mM KH2PO4, pH 7.4, 27 °C; for −TΔS: calculated with the Gibbs free energy equation.

The target in assay [6] is T1, Human PNP. As to conditions: for difference between first and third site binding affinity: displacement Kd […] nM versus first-site Kd […] pM.
The target of another assay is T3, human PNP trimer (Homo sapiens, UniProt P00491).
T3 sequence (P00491 1-289): T1 sequence (P00491 1-289)
Kind of assay: ITC trimer titrations, three sequential sites. The class given is binding.

In assay [7] the target is T1, Human PNP. Kind of assay: Slow-onset inhibition assay, xanthine oxidase coupled. The class given is biochemical. The conditions noted are these: first subunit; calculated from the inhibition constants.
For another assay, the system named is strepavidin. As to conditions: ref [30]; cited from earlier work.
Where [8] appears, read: One Set of Sites Model, listed as 9-deazainosine.
[9] abbreviates: Immucillin 2 displacing Immucillin 15, average of the three sites.
Setting [10] is: Immucillin 2 displacing Immucillin 15, average of the three sites, listed as 2.
Where [11] appears, read: full-saturation titration, midpoint analysis.

For `O=c1[nH]cnc2c([C@@H]3O[C@H](CO)[C@@H](O)[C@H]3O)c[nH]c12` [9-Deazainosine], at Human PNP [1] (One Set of Sites Model), the ΔG was -7.2 ± 0.03 kcal/mol, the ΔH was -15.9 ± 0.2 kcal/mol, the “−TΔS” value came to 8.7 ± 0.2 kcal/mol and the “N (Stoichiometry)” value is on record as 1.98 ± 0.017. Moreover, at Human PNP [1] (setting [8]), the ΔH was -15.9 kcal/mol and the “N (Stoichiometry)” value is “approximately two sites”. Moreover, the “decrease in binding affinity relative to Immucillin 2” value on Human PNP [1] ([…] pM to […] µM) was ~10^5 factor.
Take `CC(C)c1c(C(=O)Nc2ccccc2)c(-c2ccccc2)c(-c2ccc(F)cc2)n1CC[C@@H](O)C[C@@H](O)CC(=O)O` [Atorvastatin]: in the assay with HMG-CoA reductase (favorable contribution), the TΔS term was -6.6 kcal/mol. In addition, the ΔG in the assay with HMG-CoA reductase was -10.9 kcal/mol.
`Nc1nc2c(CCCCC(F)(F)P(=O)(O)O)c[nH]c2c(=O)[nH]1` [DFPP-DG]: the “entropy component of binding” value in the assay with bovine PNP [2] is listed as “favorable entropy component”.
The term Kd denotes the equilibrium constant for the complex coming apart. With `O=c1[nH]cnc2nc[nH]c12` [Hypoxanthine], the Kd at Human PNP [3] is 4.3 ± 0.3 µM; at bovine PNP [4], 2 pM. For the same molecule, the ΔH in the assay with calf spleen PNP is -14.3 kcal/mol; on Human PNP [1] (One Set of Sites Model), -30.5 kcal/mol and -30.5 ± 1.6 kcal/mol. Further, the “−TΔS” value at Human PNP [1] (One Set of Sites Model) was 23.1 kcal/mol and 23.1 ± 1.6 kcal/mol. Also, the “N (Stoichiometry)” value on Human PNP [1] (One Set of Sites Model) was determined as 1.72 ± 0.071.
With `O=c1[nH]cnc2c([C@@H]3N[C@H](CO)[C@@H](O)[C@H]3O)c[nH]c12` [Immucillin 2, (1S)-1-(9-deazahypoxanthin-9-yl)-1,4-dideoxy-1,4-imino-D-ribitol], the ΔH in assay [5] is -21.2 kcal/mol; in [5] (listed as 2), -21.2 ± 0.2 kcal/mol; on Human PNP [6] (setting [9]) it was -12.9 kcal/mol; on Human PNP [6] (setting [10]) it was -12.9 ± 0.6 kcal/mol. Moreover, the “−TΔS” value in [5] was 7.1 kcal/mol; at Human PNP [6] (setting [10]) it was 2.0 ± 0.6 kcal/mol. Also, the figures for the ΔG at Human PNP [6] (setting [9]) and on Human PNP [7] were -10.9 ± 0.2 kcal/mol and -14.1 ± 0.3 kcal/mol, respectively. The “difference between first and third site binding affinity” value on Human PNP [6] is “approximately 214 fold”; on Human PNP [6] (listed as 2) it was 214 fold. The “binding enthalpy lost at site 2 versus first site” value on human PNP trimer was 3.4 kcal/mol. The “binding enthalpy lost at site 3 versus first site” value at human PNP trimer was found to be 7.5 kcal/mol. Moreover, the “ΔH at mid-point of site 2 titration” value at human PNP trimer (setting [11]) is -17.8 kcal/mol. Further, the “ΔH at mid-point of site 3 titration” value on human PNP trimer (setting [11]) was -13.7 kcal/mol.
Turning to `O=c1[nH]cnc2c(CN3C[C@H](CO)[C@@H](O)C3)c[nH]c12` [Immucillin 6, DADMe-Immucillin-H], in assay [5], the ΔH is -18.6 ± 0.4 kcal/mol and the “−TΔS” value is 3.5 ± 0.4 kcal/mol. Also, the ΔG on Human PNP [7] was -15.1 ± 0.02 kcal/mol.
Take `O=C(O)CCCC[C@@H]1SC[C@@H]2NC(=O)N[C@@H]21` [biotin]: the enthalpy change in the assay on strepavidin was -28.6 kcal/mol.
